Reference: US4920118A, “Aromatic 2-aminoalkyl-1,2-benzoisothiazol-3-(2H)one-1,1-dioxide and their use as anxiolytic and anti-hypertensive agents” (Merrell Dow Pharmaceuticals Inc., priority 1989, dated 1990)
Like-named read-outs stand apart in the source and are kept apart here. Each block holds one compound with its values, some of them ahead of it.

Key:
5-HT1A recognition sites = target: T1, 5-HT1A recognition sites (Rattus norvegicus, UniProt P19327); assay: 5-HT1A radioligand binding, rat frontal cortex homogenate; conditions: for Fold Increase (antilog of the difference of the test compound compared to buspirone): 5-HT1A binding potency relative to buspirone
T1 construct: male normotensive Sprague-Dawley rat frontal cortex was dissected, frozen in liquid nitrogen; from tissue; host or cells: frontal cortex of male normotensive Sprague-Dawley rats, washed homogenate
T1 sequence (P19327 1-422): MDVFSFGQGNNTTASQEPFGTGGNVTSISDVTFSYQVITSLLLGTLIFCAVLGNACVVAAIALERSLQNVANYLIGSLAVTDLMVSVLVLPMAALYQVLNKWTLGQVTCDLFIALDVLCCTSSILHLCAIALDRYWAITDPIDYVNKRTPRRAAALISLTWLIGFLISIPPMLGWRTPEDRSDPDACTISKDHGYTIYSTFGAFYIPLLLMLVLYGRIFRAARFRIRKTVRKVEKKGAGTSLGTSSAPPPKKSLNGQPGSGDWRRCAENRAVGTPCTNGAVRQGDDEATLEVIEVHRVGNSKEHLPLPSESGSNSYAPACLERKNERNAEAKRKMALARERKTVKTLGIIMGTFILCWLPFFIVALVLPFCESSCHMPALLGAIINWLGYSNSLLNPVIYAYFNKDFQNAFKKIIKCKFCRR
Procedure: Radioligand binding studies of the 5-HT1A recognition sites were carried out as follows: male normotensive Sprague-Dawley rat frontal cortex was dissected, frozen in liquid nitrogen and stored at -20° C. until needed. Tissues from 4-8 rats were pooled and homogenised in 70 vol Tris-HCl buffer (50 mM, pH 7.7), using a kinematica Polytron (setting 2/3 max speed, 20 sec). The homogenate was centrifuged (36500×g for 10 min), the pellet re-homogenised in the same volume of buffer and the process repeated two more times. Between the second and third centrifugations the tissue homogenate was incubated at 37° C. for 10 min. The final pellet was suspended in the same volume of Tris buffer containing 10M pargyline, 5.7 mM CaCl2 and 0.1% ascorbic acid. This suspension was incubated for 10 min at 37° C. and then stored on ice until used in the binding assay.
Tissue homogenate (0.7 ml), radioactive ligand (0.1 ml) and the appropriate concentration of test compound (0.1 ml), together with buffer to a final volume of 1 ml were incubated at 37° C. for 15 min. Incubations were terminated by rapid filtration through Whatman GF/B filters followed by three 5 ml washes with ice-cold Tris-HCl buffer (50 mM, pH 7.0). Radioactivity was measured after extraction into Aquasol-Z (NEN) at an efficiency of 45-50%. The radioligand used to label the 5-HT1A recognition sites and its concentration is [^3 H]-8-hydroxy-2-(di-n-propylamino)-tetralin, ([^3 H]-8-OH-DPAT), 1 mM.

[1] = test system: anesthetized normotensive Sprague-Dawley rats; assay: Blood pressure and heart rate in anesthetized normotensive rats; format: in vivo, rat
Procedure: Male, normotensive Sprague-Dawley rats weighing 250-350 g (supplied by Charles River, France) were anesthetized with pentobarbitone sodium, 60 mg/kg, i.p., plus 15 mg/kg s.c. Blood pressure was recorded either from the left common carotid artery or from a femoral artery by means of a Statham pressure transducer (Type P23 AA) and heart rate was recorded from the electrocardiogram using a Beckman cardiotachometer coupler (Type 9757 B). […] A femoral vein was cannulated for the intravenous injection of drugs. After completion of all operative procedures, heparin 500 U was injected intravenously.
The compounds of Example I, 2-[4-[(2,3-dihydro-1,4-benzodioxine-2-yl)methylamino]butyl]-1,2-benzoisothiazol-3(2H)one-1,1-dioxide was administered s.c. as a saline solution in a volume of 1 ml/kg body weight. The following changes in blood pressure (B.P.) and heart rate (H.R.) were observed.

[2] = test system: conscious spontaneously hypertensive rats; assay: Arterial blood pressure and heart rate in conscious spontaneously hypertensive rats; format: in vivo, rat; conditions: for Δ BP / Δ HR: conscious SHR
Procedure: In a separate experiment arterial blood pressure and heart rate were measured directly in conscious male, spontaneously hypertensive rats weighing 250-350 g (Charles River, France). The same test compound was administered, either s.c. or orally, as a saline solution of 1 ml/kg body weight in the doses shown below.

[3] = [3H]-8-OH-DPAT, rat frontal cortex, mean ± S.E.M. of 3 independent experiments, read-out: 5-HT1A Binding Affinity Rat Brain Cortex (pIC50) (converted)

Fold Increase (antilog of the difference of the test compound compared to buspirone) (5-HT1A recognition sites): 66
IC50 (5-HT1A recognition sites; [3]): 0.457 nM
Structure (SMILES): O=C1c2ccccc2S(=O)(=O)N1CCCCNCC1COc2ccccc2O1 (stereo not drawn) [Example I, 2-[4-[(2,3-Dihydro-1,4-benzodioxin-2-yl)methylamino]butyl]-1,2-benzoisothiazol-3(2H)one-1,1-dioxide]
Effect on blood pressure and heart rate (in words) [1]: effectively lowers the blood pressure and heart rate
Δ BP ([1]; 25 μg/kg s.c.): -35 mmHg
Δ HR ([1]; 25 μg/kg s.c.): -80 beats/min
Δ BP ([1]; 500 μg/kg s.c.): -50 mmHg
Δ HR ([1]; 500 μg/kg s.c.): -90 beats/min
Δ BP ([2]; 100 μg/kg s.c.): -20 mmHg
Δ HR ([2]; 100 μg/kg s.c.): +80 beats/min
Δ BP ([2]; 200 μg/kg s.c.): -65 mmHg
Δ HR ([2]; 200 μg/kg s.c.): +100 beats/min
Δ BP ([2]; 500 μg/kg s.c.): -75 mmHg
Δ HR ([2]; 500 μg/kg s.c.): +120 beats/min
Δ BP ([2]; 1 mg/kg per os): -25 mmHg
Δ HR ([2]; 1 mg/kg per os): +100 beats/min
Δ BP ([2]; 5 mg/kg per os): -45 mmHg
Δ HR ([2]; 5 mg/kg per os): +100 beats/min
Effect on blood pressure and heart rate (in words) ([2]; conscious spontaneously hypertensive rats): lowers the blood pressure with reflex tachycardia

Fold Increase (antilog of the difference of the test compound compared to buspirone) (5-HT1A recognition sites): 3.2
IC50 (5-HT1A recognition sites; [3]): 9.33 nM
Structure (SMILES): O=C1c2ccccc2S(=O)(=O)N1CCCCNCC1COc2ccccc2N1 (stereo not drawn) [Example V, 2-[4-[(2,3-Dihydro-1,4-benzoxazin-3-yl)methylamino]butyl]-1,2-benzoisothiazol-3-(2H)one-1,1-dioxide]

Fold Increase (antilog of the difference of the test compound compared to buspirone) (5-HT1A recognition sites): 10
IC50 (5-HT1A recognition sites; [3]): 3.02 nM
Structure (SMILES): COc1cccc2c1CC(NCCCCN1C(=O)c3ccccc3S1(=O)=O)CC2 (stereo not drawn) [Example III, 2-[4-[8-Methoxytetralin-2-amino]butyl]1,2-benzoisothiazol3(2H)one-1,1-dioxide]

Structure (SMILES): O=C1c2ccccc2S(=O)(=O)N1CCCCN1CCc2c([nH]c3ccccc23)C1 [Example II, 2-[4-(2-[1,2,3,4]-tetrahydro-β-carbolinyl)butyl]-1,2-benzoisothiazol-3(2H)one-1,1-dioxide]
IC50 (5-HT1A recognition sites): 6.92 nM
Fold Increase (antilog of the difference of the test compound compared to buspirone) (5-HT1A recognition sites): 4.4
